Data from ChEMBL document CHEMBL3046146, “Mutations in the mitochondrial cytochrome b of Tetranychus urticae Koch (Acari: Tetranychidae) confer cross-resistance between bifenazate and acequinocyl” (2009).
In brackets after ≈: the same amount, converted by molar mass.

Experiments:
Type in all cases: functional
[1] = tested on: Tetranychus urticae; test: Toxicity against adult METI-resistant Tetranychus urticae MR-VP (two-spotted spider mite) in compound pretreated bean leaves assessed as mortality
[2] = tested on: Tetranychus urticae; test: Toxicity against adult Tetranychus urticae MR-VL (two-spotted spider mite) in compound pretreated bean leaves assessed as mortality
[3] = tested on: Tetranychus urticae; test: Resistance ratio of LC50 for bifenazate-resistant Tetranychus urticae BR-VL (two-spotted spider mite) harboring mitochondrial G126S, S141F and D161G Cytb mutation to LC50 for Tetranychus urticae GSS
[4] = tested on: Tetranychus urticae; test: Synergism ratio of LC50 for adult Tetranychus urticae BR-VL (two-spotted spider mite) to LC50 for adult Tetranychus urticae BR-VL in presence of 2000 mg/L GST inhibitor, DEM application
[5] = tested on: Tetranychus urticae; test: Toxicity against adult bifenazate-resistant Tetranychus urticae BEL1 (two-spotted spider mite) harboring mitochondrial P262T Cytb fixed mutation in compound pretreated bean leaves assessed as mortality; settings: BEL-1
[6] = tested on: Tetranychus urticae; test: Toxicity against adult Tetranychus urticae GSS (two-spotted spider mite) in compound pretreated bean leaves assessed as mortality
[7] = tested on: Tetranychus urticae; test: Synergism ratio of LC50 for adult Tetranychus urticae BEL-1 (two-spotted spider mite) to LC50 for adult Tetranychus urticae BEL-1 in presence of 2000 mg/L cytochrome P450 monoxygenase inhibitor, PBO
[8] = tested on: Tetranychus urticae; test: Toxicity against adult Tetranychus urticae BR-VL (two-spotted spider mite) in bean leaves assessed as mortality treated 24 hr after 2000 mg/L cytochrome P450 monoxygenase inhibitor, PBO application
[9] = tested on: Tetranychus urticae; test: Toxicity against female adult Tetranychus urticae (two-spotted spider mite) F1 progeny generated from reciprocal cross between female GSS and male BEL1 in compound pretreated bean leaves assesed as mortality
[10] = tested on: Tetranychus urticae; test: Synergism ratio of LC50 for adult Tetranychus urticae BR-VL (two-spotted spider mite) to LC50 for adult Tetranychus urticae BR-VL in presence of 2000 mg/L cytochrome P450 monoxygenase inhibitor, PBO
[11] = tested on: Tetranychus urticae; test: Resistance ratio of LC50 for bifenazate-susceptible Tetranychus urticae LS-VL (two-spotted spider mite) to LC50 for Tetranychus urticae GSS
[12] = tested on: Tetranychus urticae; test: Toxicity against female adult Tetranychus urticae (two-spotted spider mite) F1 progeny generated from reciprocal cross between female BEL1 and male GSS in compound pretreated bean leaves assesed as mortality
[13] = tested on: Tetranychus urticae; test: Toxicity against adult Tetranychus urticae HOL2 (two-spotted spider mite) harboring mitochondrial G126S Cytb mutation in compound pretreated bean leaves assessed as mortality
[14] = tested on: Tetranychus urticae; test: Resistance ratio of LC50 for Tetranychus urticae HOL3 (two-spotted spider mite) harboring mitochondrial P262T Cytb heteroplasmic mutation to LC50 for Tetranychus urticae GSS
[15] = tested on: Tetranychus urticae; test: Toxicity against adult Tetranychus urticae BEL1 (two-spotted spider mite) in bean leaves assessed as mortality treated 24 hr after 2000 mg/L esterase inhibitor, DEF application; settings: BEL-1, 24 h
[16] = tested on: Tetranychus urticae; test: Resistance ratio of LC50 for Tetranychus urticae (two-spotted spider mite) HOL4 harboring mitochondrial G126S Cytb mutation to LC50 for Tetranychus urticae GSS
[17] = tested on: Tetranychus urticae; test: Toxicity against female adult Tetranychus urticae (two-spotted spider mite) F1 progeny generated from reciprocal cross between female GSS and male BR-VL in compound pretreated bean leaves assesed as mortality
[18] = tested on: Tetranychus urticae; test: Toxicity against adult Tetranychus urticae HOL4 (two-spotted spider mite) harboring mitochondrial G126S Cytb mutation in compound pretreated bean leaves assessed as mortality
[19] = tested on: Tetranychus urticae; test: Toxicity against female adult Tetranychus urticae (two-spotted spider mite) F1 progeny generated from reciprocal cross between female BR-VL and male GSS in compound pretreated bean leaves assesed as mortality
[20] = tested on: Tetranychus urticae; test: Toxicity against adult Tetranychus urticae BEL1 (two-spotted spider mite) in bean leaves assessed as mortality treated 24 hr after 2000 mg/L GST inhibitor, DEM application; settings: BEL-1, 24 h
[21] = tested on: Tetranychus urticae; test: Synergism ratio of LC50 for adult Tetranychus urticae BR-VL (two-spotted spider mite) to LC50 for adult Tetranychus urticae BR-VL in presence of 2000 mg/L esterase inhibitor, DEF application
[22] = tested on: Tetranychus urticae; test: Synergism ratio of LC50 for adult Tetranychus urticae BEL-1 (two-spotted spider mite) to LC50 for adult Tetranychus urticae BEL-1 in presence of 2000 mg/L esterase inhibitor, DEF application
[23] = tested on: Tetranychus urticae; test: Resistance ratio of LC50 for Tetranychus urticae HOL2 (two-spotted spider mite) harboring mitochondrial G126S Cytb mutation to LC50 for Tetranychus urticae GSS
[24] = tested on: Tetranychus urticae; test: Synergism ratio of LC50 for adult Tetranychus urticae GSS (two-spotted spider mite) to LC50 for adult Tetranychus urticae GSS in presence of 2000 mg/L GST inhibitor, DEM application
[25] = tested on: Tetranychus urticae; test: Synergism ratio of LC50 for adult Tetranychus urticae GSS (two-spotted spider mite) to LC50 for adult Tetranychus urticae GSS in presence of 1000 mg/L esterase inhibitor, DEF application
[26] = tested on: Tetranychus urticae; test: Toxicity against adult Tetranychus urticae GSS (two-spotted spider mite) in bean leaves assessed as mortality treated 24 hr after 1000 mg/L esterase inhibitor, DEF application
[27] = tested on: Tetranychus urticae; test: Toxicity against adult Tetranychus urticae BR-VL (two-spotted spider mite) in bean leaves assessed as mortality treated 24 hr after 2000 mg/L esterase inhibitor, DEF application
[28] = tested on: Tetranychus urticae; test: Resistance ratio of LC50 for bifenazate-resistant Tetranychus urticae (two-spotted spider mite) BEL1 harboring mitochondrial P262T Cytb fixed mutation to LC50 for Tetranychus urticae GSS
[29] = tested on: Tetranychus urticae; test: Toxicity against adult Tetranychus urticae GSS (two-spotted spider mite) in bean leaves assessed as mortality treated 24 hr after 2000 mg/L cytochrome P450 monoxygenase inhibitor, PBO application
[30] = tested on: Tetranychus urticae; test: Resistance ratio of LC50 for METI-resistant Tetranychus urticae MR-VP (two-spotted spider mite) to LC50 for Tetranychus urticae GSS
[31] = tested on: Tetranychus urticae; test: Toxicity against adult Tetranychus urticae WI (two-spotted spider mite) in compound pretreated bean leaves assessed as mortality
[32] = tested on: Tetranychus urticae; test: Toxicity against adult bifenazate-resistant Tetranychus urticae BR-VL (two-spotted spider mite) harboring mitochondrial G126S, S141F and D161G Cytb mutation in compound pretreated bean leaves assessed as mortality
[33] = tested on: Tetranychus urticae; test: Toxicity against adult Tetranychus urticae HOL3 (two-spotted spider mite) harboring mitochondrial P262T Cytb heteroplasmic mutation in compound pretreated bean leaves assessed as mortality
[34] = tested on: Tetranychus urticae; test: Toxicity against adult Tetranychus urticae HOL1 (two-spotted spider mite) harboring mitochondrial G126S and I136T Cytb mutation in compound pretreated bean leaves assessed as mortality
[35] = tested on: Tetranychus urticae; test: Synergism ratio of LC50 for adult Tetranychus urticae GSS (two-spotted spider mite) to LC50 for adult Tetranychus urticae GSS in presence of 2000 mg/L cytochrome P450 monoxygenase inhibitor, PBO
[36] = tested on: Tetranychus urticae; test: Synergism ratio of LC50 for adult Tetranychus urticae BEL-1 (two-spotted spider mite) to LC50 for adult Tetranychus urticae BEL-1 in presence of 2000 mg/L GST inhibitor, DEM application
[37] = tested on: Tetranychus urticae; test: Resistance ratio of LC50 for Tetranychus urticae HOL1 (two-spotted spider mite) harboring mitochondrial G126S and I136T Cytb mutation to LC50 for Tetranychus urticae GSS
[38] = tested on: Tetranychus urticae; test: Toxicity against adult Tetranychus urticae BEL1 (two-spotted spider mite) in bean leaves assessed as mortality treated 24 hr after 2000 mg/L cytochrome P450 monoxygenase inhibitor, PBO application; settings: BEL-1, 24 h
[39] = tested on: Tetranychus urticae; test: Resistance ratio of LC50 for Tetranychus urticae WI (two-spotted spider mite) to LC50 for Tetranychus urticae GSS
[40] = tested on: Tetranychus urticae; test: Toxicity against adult Tetranychus urticae BR-VL (two-spotted spider mite) in bean leaves assessed as mortality treated 24 hr after 2000 mg/L GST inhibitor, DEM application
[41] = tested on: Tetranychus urticae; test: Toxicity against adult Tetranychus urticae GSS (two-spotted spider mite) in bean leaves assessed as mortality treated 24 hr after 2000 mg/L GST inhibitor, DEM application
[42] = tested on: Tetranychus urticae; test: Toxicity against adult bifenazate-susceptible Tetranychus urticae LS-VL (two-spotted spider mite) in compound pretreated bean leaves assessed as mortality
[43] = tested on: Tetranychus urticae; test: Resistance ratio of LC50 for Tetranychus urticae MR-VL (two-spotted spider mite) to LC50 for Tetranychus urticae GSS

Structure (SMILES): CCCCCCCCCCCCC1=C(OC(C)=O)C(=O)c2ccccc2C1=O [ACEQUINOCYL]
- LC50 [1]: 30.5 µg/mL (≈ 79.3 µM)
- LC50 [2]: 15.8 µg/mL (≈ 41.1 µM)
- RatioLC50 [3]: 105
- RatioLC50 [4]: 1.5
- LC50 [5]: 548 µg/mL (≈ 1430 µM)
- LC50 [6]: 11.3 µg/mL (≈ 29.4 µM)
- RatioLC50 [7]: 6.9
- LC50 [8]: 209 µg/mL (≈ 544 µM)
- LC50 [9]: 26.2 µg/mL (≈ 68.1 µM)
- RatioLC50 [10]: 5.6
- RatioLC50 [11]: 0.9
- LC50 [12]: 535 µg/mL (≈ 1390 µM)
- LC50 [13]: 11.2 µg/mL (≈ 29.1 µM)
- RatioLC50 [14]: 11.1
- LC50 [15]: 450 µg/mL (≈ 1170 µM)
- RatioLC50 [16]: 0.9
- LC50 [17]: 22.3 µg/mL (≈ 58 µM)
- LC50 [18]: 10.2 µg/mL (≈ 26.5 µM)
- LC50 [19]: 1200 µg/mL (≈ 3120 µM)
- LC50 [20]: 484 µg/mL (≈ 1260 µM)
- RatioLC50 [21]: 1.1
- RatioLC50 [22]: 1.2
- RatioLC50 [23]: 1
- RatioLC50 [24]: 1.4
- RatioLC50 [25]: 1.1
- LC50 [26]: 9.9 µg/mL (≈ 25.7 µM)
- LC50 [27]: 1060 µg/mL (≈ 2760 µM)
- RatioLC50 [28]: 48.5
- LC50 [29]: 5 µg/mL (≈ 13 µM)
- RatioLC50 [30]: 2.7
- LC50 [31]: 26.5 µg/mL (≈ 68.9 µM)
- LC50 [32]: 1180 µg/mL (≈ 3070 µM)
- LC50 [33]: 126 µg/mL (≈ 328 µM)
- LC50 [34]: 9.4 µg/mL (≈ 24.4 µM)
- RatioLC50 [35]: 2.26
- RatioLC50 [36]: 1.1
- RatioLC50 [37]: 0.8
- LC50 [38]: 79.4 µg/mL (≈ 206 µM)
- RatioLC50 [39]: 2.3
- LC50 [40]: 782 µg/mL (≈ 2030 µM)
- LC50 [41]: 8.3 µg/mL (≈ 21.6 µM)
- LC50 [42]: 10.7 µg/mL (≈ 27.8 µM)
- RatioLC50 [43]: 1.4

Structure (SMILES): COc1ccc(-c2ccccc2)cc1NNC(=O)OC(C)C [BIFENAZATE]
- LC50 [1]: 7.3 µg/mL (≈ 24.3 µM)
- LC50 [2]: 10.5 µg/mL (≈ 35 µM)
- RatioLC50 [3]: >2780
- LC50 [5]: > 10000 µg/mL
- LC50 [6]: 3.6 µg/mL (≈ 12 µM)
- RatioLC50 [11]: 0.4
- LC50 [13]: 43.4 µg/mL (≈ 144 µM)
- RatioLC50 [14]: >2780
- RatioLC50 [16]: >2780
- LC50 [18]: > 10000 µg/mL
- RatioLC50 [23]: 12.1
- RatioLC50 [28]: >2780
- RatioLC50 [30]: 2
- LC50 [31]: 8.7 µg/mL (≈ 29 µM)
- LC50 [32]: > 10000 µg/mL
- LC50 [33]: > 10000 µg/mL
- LC50 [34]: > 10000 µg/mL
- RatioLC50 [37]: >2780
- RatioLC50 [39]: 2.4
- LC50 [42]: 1.6 µg/mL (≈ 5.33 µM)
- RatioLC50 [43]: 2.9

Structure (SMILES): CO/C=C(/C(=O)OC)c1ccccc1COc1cc(C(F)(F)F)nc(OC(C)C)n1 [FLUACRYPYRIM]
- LC50 [1]: > 10000 µg/mL
- LC50 [2]: 28.8 µg/mL (≈ 67.5 µM)
- RatioLC50 [3]: >1515
- LC50 [5]: > 10000 µg/mL
- LC50 [6]: 6.6 µg/mL (≈ 15.5 µM)
- LC50 [8]: > 10000 µg/mL
- LC50 [9]: > 10000 µg/mL
- RatioLC50 [11]: >1515
- LC50 [12]: > 10000 µg/mL
- LC50 [13]: > 10000 µg/mL
- RatioLC50 [14]: >1515
- LC50 [15]: > 10000 µg/mL
- RatioLC50 [16]: >1515
- LC50 [17]: > 10000 µg/mL
- LC50 [18]: > 10000 µg/mL
- LC50 [19]: > 10000 µg/mL
- LC50 [20]: > 10000 µg/mL
- RatioLC50 [23]: >1515
- RatioLC50 [24]: 0.5
- RatioLC50 [25]: 1.6
- LC50 [26]: 4.2 µg/mL (≈ 9.85 µM)
- LC50 [27]: > 10000 µg/mL
- RatioLC50 [28]: >1515
- LC50 [29]: 3.8 µg/mL (≈ 8.91 µM)
- RatioLC50 [30]: >1515
- LC50 [31]: 3 µg/mL (≈ 7.04 µM)
- LC50 [32]: > 10000 µg/mL
- LC50 [33]: > 10000 µg/mL
- LC50 [34]: > 10000 µg/mL
- RatioLC50 [35]: 1.7
- RatioLC50 [37]: >1515
- LC50 [38]: > 10000 µg/mL
- RatioLC50 [39]: 0.5
- LC50 [40]: > 10000 µg/mL
- LC50 [41]: 12.4 µg/mL (≈ 29.1 µM)
- LC50 [42]: > 10000 µg/mL
- RatioLC50 [43]: 4.4
